Source: patent US12448363B2, “Kinase inhibitors” (Vidya Therapeutics, Inc., priority 2020, dated 2025)

What was measured:
[1] = Plasma and total brain concentrations at 1 h post a single oral administration to female C57BL/6 mice; assay type: in vivo; settings: mouse, 1 h post single oral 10 mg/kg, LC-MS/MS, read-out: Brain:plasma ratio
Method: Determination of Plasma and Total Brain Concentrations at 1 h Post a Single Oral Administration of Test Compound to Female C57BL/6 Mice
The appropriate amount of test article was dissolved 10% dimethylacetamide (DMA)/90% (20% hydroxypropyl-b-cyclodextrin (HP-β-CD) w/v in water to obtain a final concentration of 1 mg/mL for oral dosing. Sonication, vortex, and homogenization was used as needed. Three female C57BL/6 mice aged 7-9 weeks (20-30 grams) were dosed by oral gavage 10 mg/kg solution of the test article.
Concentrations of representative test compounds in the plasma and brain samples (using plasma and brain homogenate standard curve for all samples appropriately) were analyzed using LC-MS/MS. With respect to the brain:plasma ratio, Table 11 lists the results as follows: • “A” denotes a ratio >0.5; • “B” denotes a ratio between 0.1 and 0.5; and • “C” denotes a ratio <0.1.

[2] = tested on: BTK Activity in RAMOS B Cells; test: Assay to determine BTK activity in RAMOS B cells (anti-IgM, FLIPR Calcium 6); assay type: cell-based; settings: EC80 anti-IgM, FLIPR calcium read
In short: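 Ramos B cells were loaded with Calcium 6 dye containing 5 mM probenecid (2 h at 37 °C, then 15 min at 25 °C) and exposed to compound for 60 min at 25 °C. Anti-IgM was then added from a 4×EC80 stock, and calcium flux was recorded by FLIPR for 160 s; IC50 was derived.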

`C=CC(=O)N1CCC[C@@H](c2c(F)cc(C(N)=O)c3[nH]c(C)c(Cl)c23)C1` [Compound 2a, (S)-4-(1-acryloylpiperidin-3-yl)-3-chloro-5-fluoro-2-methyl-1H-indole-7-carboxamide] gave a Kp at 1 h [1] of 0.1 to 0.5 and an IC50 ([2]; Homo sapiens, Ramos) of less than 10 nM.
Work on `CC#CC(=O)N[C@H]1C[C@@H](F)CN(c2c(F)cc(C(N)=O)c3[nH]c(C)c(C)c23)C1` [Compound 33, 4-((3S,5R)-3-(but-2-ynamido)-5-fluoropiperidin-1-yl)-5-fluoro-2,3-dimethyl-1H-indole-7-carboxamide] yielded a Kp at 1 h [1] of less than 0.1 and an IC50 ([2]; Homo sapiens, Ramos) of less than 10 nM.
For `C=CC(=O)N1CCc2c(cccc2-c2c(F)cc(C(N)=O)c3[nH]c(C)c(Cl)c23)C1` (single isomer, unassigned) [Compound 20b], the Kp at 1 h [1] was 0.1 to 0.5 and the IC50 [2] was less than 10 nM.
For `CC#CC(=O)N[C@H]1C[C@H](F)CN(c2c(F)cc(C(N)=O)c3[nH]c(C)c(C)c23)C1` [Compound 35, 4-((3S,5S)-3-(but-2-ynamido)-5-fluoropiperidin-1-yl)-5-fluoro-2,3-dimethyl-1H-indole-7-carboxamide], the Kp at 1 h [1] was less than 0.1 and the IC50 ([2]; Homo sapiens, Ramos) was less than 10 nM.
For `C=CC(=O)N1CCC[C@@H](c2c(F)c(F)c(C(N)=O)c3[nH]c(C)c(F)c23)C1` [Compound 6b, (S)-4-(1-acryloylpiperidin-3-yl)-3,5,6-trifluoro-2-methyl-1H-indole-7-carboxamide], the Kp at 1 h [1] was 0.1 to 0.5 and the IC50 ([2]; Homo sapiens, Ramos) was less than 10 nM.
`C=CC(=O)N1CCc2c(-c3c(F)cc(C(N)=O)c4[nH]c(C)c(Cl)c34)cccc2C1C` (racemic) [Compound 22a, 4-(2-acryloyl-1-methyl-1,2,3,4-tetrahydroisoquinolin-5-yl)-3-chloro-5-fluoro-2-methyl-1H-indole-7-carboxamide] gave a Kp at 1 h [1] of 0.1 to 0.5 and an IC50 ([2]; Homo sapiens, Ramos) of 10 to 100 nM.
For `C=CC(=O)N1CCC2CCN(c3c(F)cc(C(N)=O)c4[nH]c(C)c(C)c34)CC21` (single isomer, unassigned) [Compound 32b, 4-(1-acryloyloctahydro-6H-pyrrolo[2,3-c]pyridin-6-yl)-5-fluoro-2,3-dimethyl-1H-indole-7-carboxamide], the Kp at 1 h [1] was less than 0.1 and the IC50 [2] was 10 to 100 nM.
For `CC#CC(=O)N1CCCC2CN(c3c(F)cc(C(N)=O)c4[nH]c(C)c(Cl)c34)CC21` (stereo not shown) [Compound 40, 4-(1-(but-2-ynoyl)octahydro-6H-pyrrolo[3,4-b]pyridin-6-yl)-3-chloro-5-fluoro-2-methyl-1H-indole-7-carboxamide], the Kp at 1 h [1] was greater than 0.5 and the IC50 ([2]; Homo sapiens, Ramos) was 10 to 100 nM.
`C=CC(=O)N1CCC=C(c2c(F)cc(C(N)=O)c3[nH]c(C)c(Cl)c23)C1` [Compound 1, 4-(1-acryloyl-1,2,5,6-tetrahydropyridin-3-yl)-3-chloro-5-fluoro-2-methyl-1H-indole-7-carboxamide] showed a Kp at 1 h [1] of less than 0.1 and an IC50 ([2]; Homo sapiens, Ramos) of less than 10 nM.
Compound `C=CC(=O)N1CCC2CCN(c3c(F)cc(C(N)=O)c4[nH]c(C)c(Cl)c34)CC21` (racemic) [Compound 29, 4-(1-acryloyloctahydro-6H-pyrrolo[2,3-c]pyridin-6-yl)-3-chloro-5-fluoro-2-methyl-1H-indole-7-carboxamide] has a Kp at 1 h [1] of 0.1 to 0.5 and an IC50 ([2]; Homo sapiens, Ramos) of 10 to 100 nM.
`C=CC(=O)N1CCC[C@@H](c2c(F)c(F)c(C(N)=O)c3[nH]c(C)c(Cl)c23)C1` [Compound 16, (S)-4-(1-acryloylpiperidin-3-yl)-3-chloro-5,6-difluoro-2-methyl-1H-indole-7-carboxamide] showed a Kp at 1 h [1] of 0.1 to 0.5 and an IC50 ([2]; Homo sapiens, Ramos) of less than 10 nM.
`C=CC(=O)N1CCC2CCN(c3c(F)cc(C(N)=O)c4[nH]c(C)c(Cl)c34)CC21` (single isomer, unassigned) [Compound 29a, 4-(1-acryloyloctahydro-6H-pyrrolo[2,3-c]pyridin-6-yl)-3-chloro-5-fluoro-2-methyl-1H-indole-7-carboxamide] showed a Kp at 1 h [1] of 0.1 to 0.5 and an IC50 ([2]; Homo sapiens, Ramos) of 10 to 100 nM.
Compound `CC#CC(=O)N[C@H]1C[C@@H](F)CN(c2c(F)cc(C(N)=O)c3[nH]c(C)c(Cl)c23)C1` [Compound 27, 4-((3S,5R)-3-(but-2-ynamido)-5-fluoropiperidin-1-yl)-3-chloro-5-fluoro-2-methyl-1H-indole-7-carboxamide] has a Kp at 1 h [1] of 0.1 to 0.5 and an IC50 ([2]; Homo sapiens, Ramos) of less than 10 nM.
With `C=CC(=O)N1CCC[C@H](c2c(F)c(F)c(C(N)=O)c3[nH]c(C)c(F)c23)C1` [Compound 6a, (R)-4-(1-acryloylpiperidin-3-yl)-3,5,6-trifluoro-2-methyl-1H-indole-7-carboxamide] the Kp at 1 h [1] was 0.1 to 0.5 and the IC50 ([2]; Homo sapiens, Ramos) was less than 10 nM.
